The values below come from ChEMBL document CHEMBL1201862, “PubChem BioAssay data set” (2004).

The target in experiment [1] is Eukaryotic translation initiation factor 4H (Homo sapiens, UniProt Q15056). The experiment can be described thus: human eIF4H binding inhibitors, primary screen, translation initiation inhibitor project, biochemical, uHTS, fluorescence polarization (AID 2012). In general terms: In fluorescence polarisation assays a small probe gives low polarisation when free and higher when bound to something large.

In experiment [2] the target is Polyadenylate-binding protein 1 (Homo sapiens, UniProt P11940). The experiment can be described thus: PABP poly(A) RNA binding inhibitors, primary screen, biochemical, fluorescence polarization, uHTS (AID 2014).
The target in experiment [3] is Likely tRNA 2'-phosphotransferase (Candida albicans (strain SC5314 / ATCC MYA-2876) (Yeast), UniProt Q5A7N4). The experiment can be described thus: TPT1 tRNA phosphotransferase inhibitors, dose response, biochemical, fluorescence polarization (AID 2160).
The target of experiment [4] is Guanyl-specific ribonuclease T1 (Aspergillus oryzae (strain ATCC 42149 / RIB 40), UniProt P00651). The experiment can be described thus: RNase T1 inhibitors, dose response, counter-screen for TPT1 inhibitor project, biochemical, fluorescence polarization, 1536-well (AID 2167). On the technique in general: The purpose of a counterscreen is to sort out artefacts and off-target activity.

A short description of experiment [5]: Counterscreen for IDE inhibitors: Luminescence-based cell-based high throughput dose response assay to identify compounds that are cytotoxic to HEK cells. [Related pubchem assays: 434962 (Primary screen (IDE inhibitors in singlicate)), 449730 (Counterscreen (Cytotoxicity in triplicate)), 435028 (Confirmation (IDE inhibitors in triplicate)) …. It is filed as functional. The note with it: HEK293.

The target in experiment [6] is T1, Insulin-degrading enzyme (Homo sapiens, UniProt P14735).
T1 sequence (P14735 whole entry): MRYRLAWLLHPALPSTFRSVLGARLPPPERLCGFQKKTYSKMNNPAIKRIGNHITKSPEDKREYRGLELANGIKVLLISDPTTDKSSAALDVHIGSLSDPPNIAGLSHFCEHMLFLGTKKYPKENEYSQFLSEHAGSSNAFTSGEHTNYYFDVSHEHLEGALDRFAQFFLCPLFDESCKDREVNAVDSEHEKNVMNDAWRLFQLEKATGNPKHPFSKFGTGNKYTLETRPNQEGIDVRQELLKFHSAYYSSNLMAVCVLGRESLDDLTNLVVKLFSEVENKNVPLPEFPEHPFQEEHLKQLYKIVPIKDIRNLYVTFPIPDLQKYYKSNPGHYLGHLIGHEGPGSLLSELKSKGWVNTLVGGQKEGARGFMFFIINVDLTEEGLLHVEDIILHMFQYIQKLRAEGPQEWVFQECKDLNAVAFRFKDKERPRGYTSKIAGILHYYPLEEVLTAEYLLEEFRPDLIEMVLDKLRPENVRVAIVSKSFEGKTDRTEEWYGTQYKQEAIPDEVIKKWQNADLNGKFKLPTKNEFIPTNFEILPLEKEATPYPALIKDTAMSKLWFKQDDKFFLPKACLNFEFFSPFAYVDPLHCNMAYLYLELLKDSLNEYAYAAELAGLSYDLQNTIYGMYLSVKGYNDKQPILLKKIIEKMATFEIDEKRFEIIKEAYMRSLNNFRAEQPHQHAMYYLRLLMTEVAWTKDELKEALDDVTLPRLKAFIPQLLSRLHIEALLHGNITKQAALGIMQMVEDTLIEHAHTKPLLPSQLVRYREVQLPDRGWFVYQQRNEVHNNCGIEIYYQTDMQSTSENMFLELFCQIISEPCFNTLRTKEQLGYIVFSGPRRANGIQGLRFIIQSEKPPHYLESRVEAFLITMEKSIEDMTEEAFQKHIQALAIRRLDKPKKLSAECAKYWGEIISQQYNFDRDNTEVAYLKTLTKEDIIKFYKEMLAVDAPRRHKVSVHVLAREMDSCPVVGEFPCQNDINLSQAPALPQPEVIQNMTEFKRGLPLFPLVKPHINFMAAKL
The experiment is described as follows: Dose Response: Fluorescence polarization-based cell-based high throughput dose response assay for inhibitors of insulin-degrading enzyme (IDE). [Related pubchem assays: 434962 (Primary screen (IDE inhibitors in singlicate)), 449730 (Counterscreen (Cytotoxicity in triplicate)), 435028 (Confirmation (IDE inhibitors in triplicate)), 434984 (Summary …. Format: functional.

In experiment [7] the target is X-box-binding protein 1 (Homo sapiens, UniProt P17861). It is filed as functional, Cricetulus griseus.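 Further: confirmatory dose-response counter-screen serving a CHOP assay.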
Experiment [8] deals with DNA dC->dU-editing enzyme APOBEC-3A (Homo sapiens, UniProt P31941). The experiment is described as follows: Dose Response confirmation of small molecule APOBEC3A DNA Deaminase Inhibitors via a fluorescence-based single-stranded DNA deaminase assay. [Related pubchem assays (depositor defined):AID493011, AID493024]. It is filed as functional.
Experiment [9] addresses DNA dC->dU-editing enzyme APOBEC-3G (Homo sapiens, UniProt Q9HC16). It is filed as functional.
Experiment [10] has as its system HEK293. The experiment is described as follows: cells. As to conditions: Homo sapiens.
The target in experiment [11] is T2, Nucleotide-binding oligomerization domain-containing protein 1 (Homo sapiens, UniProt Q9Y239).
T2 sequence (Q9Y239 whole entry): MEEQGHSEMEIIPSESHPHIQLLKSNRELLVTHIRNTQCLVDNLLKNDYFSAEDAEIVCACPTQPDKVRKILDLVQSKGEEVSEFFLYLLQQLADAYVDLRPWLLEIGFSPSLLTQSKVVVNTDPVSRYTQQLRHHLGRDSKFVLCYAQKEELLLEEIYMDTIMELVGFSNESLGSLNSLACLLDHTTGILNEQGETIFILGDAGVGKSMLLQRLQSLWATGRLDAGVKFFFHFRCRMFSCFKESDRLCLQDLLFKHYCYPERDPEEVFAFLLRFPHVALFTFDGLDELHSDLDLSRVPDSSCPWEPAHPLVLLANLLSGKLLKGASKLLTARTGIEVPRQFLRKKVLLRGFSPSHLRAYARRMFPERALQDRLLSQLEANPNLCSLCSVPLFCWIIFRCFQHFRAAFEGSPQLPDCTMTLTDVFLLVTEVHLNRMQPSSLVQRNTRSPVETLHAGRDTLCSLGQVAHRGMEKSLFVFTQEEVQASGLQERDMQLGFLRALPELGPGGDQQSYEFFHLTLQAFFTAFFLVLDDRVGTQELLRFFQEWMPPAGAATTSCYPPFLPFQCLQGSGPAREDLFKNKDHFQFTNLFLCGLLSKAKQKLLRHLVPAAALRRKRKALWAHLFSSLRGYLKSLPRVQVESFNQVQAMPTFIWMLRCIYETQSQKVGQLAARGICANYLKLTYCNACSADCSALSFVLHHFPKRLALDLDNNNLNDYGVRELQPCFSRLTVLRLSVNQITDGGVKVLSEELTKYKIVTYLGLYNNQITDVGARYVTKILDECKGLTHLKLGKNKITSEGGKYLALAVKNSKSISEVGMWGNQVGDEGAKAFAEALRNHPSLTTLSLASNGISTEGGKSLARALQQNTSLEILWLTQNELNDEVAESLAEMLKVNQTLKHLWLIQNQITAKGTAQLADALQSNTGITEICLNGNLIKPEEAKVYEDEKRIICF
The experiment can be described thus: NOD1 signaling inhibitors, SAR follow-up, revised (AID 2333). Format: functional.

For experiment [12], the target named is Nucleotide-binding oligomerization domain-containing protein 2 (Homo sapiens, UniProt Q9HC29). The experiment is described as follows: PubChem AID 2334. Format: functional.
Experiment [13] addresses Tumor necrosis factor (Homo sapiens, UniProt P01375). The experiment is described as follows: TNFa-triggered NF-kB activation inhibitors, SAR follow-up, cell-based, revised (AID 2337). It is filed as functional.
Experiment [14] deals with HEK293. The experiment can be described thus: Fluorescence-based counterscreen for potentiators or agonists of NPY-Y2: cell-based high-throughput dose response assay to identify inhibitors of cyclic nucleotide gated ion channel (CNGC) activity. In this assay, the parental HEK293 cell line transfected with a cyclic-nucleotide gated ion channel (CNGC)-based cAMP sensor is used to measure inhibition of isoproterenol-induced CNGC activity by test compound. Format: functional. As to conditions: Homo sapiens.

The target in experiment [15] is T3, Neuropeptide Y receptor type 1 (Homo sapiens, UniProt P25929).
T3 sequence (P25929 whole entry): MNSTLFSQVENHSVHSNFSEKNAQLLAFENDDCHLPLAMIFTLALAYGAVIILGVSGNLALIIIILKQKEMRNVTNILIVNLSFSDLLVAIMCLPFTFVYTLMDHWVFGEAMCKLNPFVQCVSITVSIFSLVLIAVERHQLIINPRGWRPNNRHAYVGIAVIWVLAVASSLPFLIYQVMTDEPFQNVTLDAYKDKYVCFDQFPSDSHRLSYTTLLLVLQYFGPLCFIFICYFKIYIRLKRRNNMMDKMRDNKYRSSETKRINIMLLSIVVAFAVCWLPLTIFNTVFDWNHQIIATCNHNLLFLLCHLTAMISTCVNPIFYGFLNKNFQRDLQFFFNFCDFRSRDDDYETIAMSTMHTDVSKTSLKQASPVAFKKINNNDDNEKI
The experiment can be described thus: Fluorescence-based counterscreen for agonists of NPY-Y2: cell-based high-throughput dose response assay for agonists of NPY-Y1. Format: functional.

For experiment [16], the target named is T4, Neuropeptide Y receptor type 2 (Homo sapiens, UniProt P49146).
T4 sequence (P49146 whole entry): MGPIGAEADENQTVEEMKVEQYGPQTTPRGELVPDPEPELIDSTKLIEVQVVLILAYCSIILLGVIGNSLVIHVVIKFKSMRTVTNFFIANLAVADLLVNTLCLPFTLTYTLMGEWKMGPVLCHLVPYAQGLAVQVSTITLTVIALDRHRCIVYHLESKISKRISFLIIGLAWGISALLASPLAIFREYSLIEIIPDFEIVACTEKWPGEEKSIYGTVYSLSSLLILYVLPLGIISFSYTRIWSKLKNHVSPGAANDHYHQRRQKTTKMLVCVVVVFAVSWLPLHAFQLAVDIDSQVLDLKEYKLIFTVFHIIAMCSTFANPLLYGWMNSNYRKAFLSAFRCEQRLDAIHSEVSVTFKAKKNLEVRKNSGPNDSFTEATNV
The experiment is described as follows: Fluorescence-based cell-based high-throughput dose response assay for agonists of NPY-Y2. [Related pubchem assays: 1703 (Screening assay (CNGC inhibitors).), 1359 (Screening assay (NPY-Y2 potentiators or agonists).), 1304 (Screening assay (NPY-Y1 potentiators or agonists).), 1710 (Screening assay (NPY-Y2 agonists).), 1791 (Summary AID.)]. Format: functional.

For orientation: IC50 means the concentration that gives 50% inhibition. One may read the EC50 as the concentration giving half of the maximal effect.

Structures are written as SMILES. Calls of active or inactive are those of the source.

Sequence of DNA dC->dU-editing enzyme APOBEC-3A (P31941 whole entry): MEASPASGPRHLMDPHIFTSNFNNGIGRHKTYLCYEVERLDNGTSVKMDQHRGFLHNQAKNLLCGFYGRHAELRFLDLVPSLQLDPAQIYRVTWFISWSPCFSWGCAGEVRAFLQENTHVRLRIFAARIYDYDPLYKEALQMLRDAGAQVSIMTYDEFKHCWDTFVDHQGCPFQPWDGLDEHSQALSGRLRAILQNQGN
Sequence of DNA dC->dU-editing enzyme APOBEC-3G (Q9HC16 whole entry): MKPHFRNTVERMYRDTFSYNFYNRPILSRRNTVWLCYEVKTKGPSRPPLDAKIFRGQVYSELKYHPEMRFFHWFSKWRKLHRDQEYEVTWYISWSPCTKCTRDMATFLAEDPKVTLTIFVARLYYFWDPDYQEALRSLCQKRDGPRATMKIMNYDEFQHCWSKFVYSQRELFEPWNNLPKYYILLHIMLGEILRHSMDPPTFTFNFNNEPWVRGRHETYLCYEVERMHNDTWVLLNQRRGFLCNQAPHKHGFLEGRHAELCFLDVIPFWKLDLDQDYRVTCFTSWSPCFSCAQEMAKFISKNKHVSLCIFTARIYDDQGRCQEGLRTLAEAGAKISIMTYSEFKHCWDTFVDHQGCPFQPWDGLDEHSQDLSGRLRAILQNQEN
Sequence of Nucleotide-binding oligomerization domain-containing protein 2 (Q9HC29 whole entry, the tested form may be a part): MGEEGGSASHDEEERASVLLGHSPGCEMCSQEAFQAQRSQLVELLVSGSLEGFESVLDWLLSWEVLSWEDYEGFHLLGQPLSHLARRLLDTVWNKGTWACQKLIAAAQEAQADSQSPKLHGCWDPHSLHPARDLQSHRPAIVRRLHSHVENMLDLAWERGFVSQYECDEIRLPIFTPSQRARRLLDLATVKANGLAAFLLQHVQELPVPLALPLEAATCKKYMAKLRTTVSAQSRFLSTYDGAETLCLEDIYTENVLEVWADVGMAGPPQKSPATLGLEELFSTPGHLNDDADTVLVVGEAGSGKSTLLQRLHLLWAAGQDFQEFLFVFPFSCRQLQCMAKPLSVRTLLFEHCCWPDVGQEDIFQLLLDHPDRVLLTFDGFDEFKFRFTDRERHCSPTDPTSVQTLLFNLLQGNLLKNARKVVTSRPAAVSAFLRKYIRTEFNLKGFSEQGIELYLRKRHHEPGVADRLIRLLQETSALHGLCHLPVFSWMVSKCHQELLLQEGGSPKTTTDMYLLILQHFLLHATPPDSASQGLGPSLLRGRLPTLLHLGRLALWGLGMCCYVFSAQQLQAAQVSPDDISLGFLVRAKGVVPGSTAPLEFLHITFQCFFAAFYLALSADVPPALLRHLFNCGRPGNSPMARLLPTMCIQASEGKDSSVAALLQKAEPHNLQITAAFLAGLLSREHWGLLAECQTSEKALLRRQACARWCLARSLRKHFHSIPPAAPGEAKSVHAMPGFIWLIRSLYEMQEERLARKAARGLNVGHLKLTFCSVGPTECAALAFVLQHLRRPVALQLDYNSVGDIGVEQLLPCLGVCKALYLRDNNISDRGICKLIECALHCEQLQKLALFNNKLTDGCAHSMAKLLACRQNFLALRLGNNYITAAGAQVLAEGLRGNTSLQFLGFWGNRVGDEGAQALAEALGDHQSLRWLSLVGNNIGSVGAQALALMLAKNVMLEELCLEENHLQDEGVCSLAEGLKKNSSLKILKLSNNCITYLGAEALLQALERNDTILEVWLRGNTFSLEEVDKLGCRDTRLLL
Sequence of Tumor necrosis factor (P01375 whole entry): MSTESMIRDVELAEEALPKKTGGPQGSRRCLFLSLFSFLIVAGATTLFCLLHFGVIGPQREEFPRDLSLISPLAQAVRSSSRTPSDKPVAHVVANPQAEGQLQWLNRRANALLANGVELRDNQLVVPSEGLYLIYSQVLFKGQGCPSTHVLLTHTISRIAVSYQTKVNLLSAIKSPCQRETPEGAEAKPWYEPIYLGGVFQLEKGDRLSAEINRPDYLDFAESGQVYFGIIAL
Sequence of Polyadenylate-binding protein 1 (P11940 whole entry): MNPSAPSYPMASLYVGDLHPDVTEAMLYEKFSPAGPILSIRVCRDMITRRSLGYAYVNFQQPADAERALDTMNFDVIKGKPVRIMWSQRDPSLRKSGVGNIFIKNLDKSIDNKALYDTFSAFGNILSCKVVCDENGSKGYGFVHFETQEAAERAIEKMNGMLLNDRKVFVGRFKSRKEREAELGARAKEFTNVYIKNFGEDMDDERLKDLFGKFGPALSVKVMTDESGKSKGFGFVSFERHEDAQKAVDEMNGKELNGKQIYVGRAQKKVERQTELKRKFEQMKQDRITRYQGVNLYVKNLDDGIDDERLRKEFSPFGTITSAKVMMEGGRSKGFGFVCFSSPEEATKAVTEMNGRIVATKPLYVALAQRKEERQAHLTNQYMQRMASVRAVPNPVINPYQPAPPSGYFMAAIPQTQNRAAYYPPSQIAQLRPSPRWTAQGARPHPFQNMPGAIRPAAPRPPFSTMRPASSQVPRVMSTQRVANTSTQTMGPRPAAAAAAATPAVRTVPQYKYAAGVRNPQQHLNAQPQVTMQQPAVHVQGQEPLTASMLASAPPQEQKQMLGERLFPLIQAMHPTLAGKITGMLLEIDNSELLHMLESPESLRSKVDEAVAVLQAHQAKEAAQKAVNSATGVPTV
Sequence of X-box-binding protein 1 (P17861 whole entry): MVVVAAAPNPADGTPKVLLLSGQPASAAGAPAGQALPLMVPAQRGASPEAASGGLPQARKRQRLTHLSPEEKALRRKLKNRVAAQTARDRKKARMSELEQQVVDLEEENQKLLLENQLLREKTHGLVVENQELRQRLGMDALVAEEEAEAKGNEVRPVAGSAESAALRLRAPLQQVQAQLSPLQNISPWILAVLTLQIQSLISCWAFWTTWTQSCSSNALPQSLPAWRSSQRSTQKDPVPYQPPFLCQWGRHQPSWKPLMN
Sequence of Likely tRNA 2'-phosphotransferase (Q5A7N4 whole entry): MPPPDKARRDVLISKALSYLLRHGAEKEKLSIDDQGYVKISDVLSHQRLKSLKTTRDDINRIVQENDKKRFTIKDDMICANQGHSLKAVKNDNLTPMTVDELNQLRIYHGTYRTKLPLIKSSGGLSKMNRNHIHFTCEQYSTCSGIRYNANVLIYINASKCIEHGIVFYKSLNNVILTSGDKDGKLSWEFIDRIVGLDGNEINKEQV
Sequence of Guanyl-specific ribonuclease T1 (P00651 whole entry): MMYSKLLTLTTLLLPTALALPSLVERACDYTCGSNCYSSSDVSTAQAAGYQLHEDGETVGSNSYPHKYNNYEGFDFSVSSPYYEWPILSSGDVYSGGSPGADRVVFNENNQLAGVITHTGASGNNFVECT

For `C[N+]1(CCOS(=O)C23CC4CC(CC(C4)C2)C3)CCOCC1` (stereo unspecified), the IC50 is > 100 µM (inactive) in [1] and 11.8 µM (active) in [2].

Consider `Cc1ccc(N2C(=O)NC(=O)/C(=C\c3ccc([N+](=O)[O-])o3)C2=O)cc1`, for which the IC50 in experiment [3] is 5.55 µM (active); in experiment [4], > 55.7 µM (not active).

Take `CC(C)(C)C(=O)N1CCN(c2ccnc3cc(Cl)ccc23)CC1`: the results for the IC50 in experiment [5] and in experiment [6] were 20.8 µM (not active) and 18.6 µM (not active), respectively.

As for `Oc1ccc(N=Nc2cccc(C(F)(F)F)c2)cc1/C=N/c1ccc(N2CCOCC2)cc1`, the “Absolute IC50 (XBP1)” value in experiment [7] came to 10 µM.

With `CC[n+]1c(/C=C2/C=CN(CCCS(=O)(=O)[O-])c3ccccc32)sc2ccccc21`, the IC50 in [5] is > 55.7 µM (not active); in [8], 2.69 µM (active); in experiment [9], 2.97 µM (active); in experiment [6], 12.3 µM (not active).

Consider `CCC(=O)N1CCc2cc(S(=O)(=O)N3CCN(c4ccc(C(C)=O)cc4)CC3)ccc21`, for which the IC50 in [10], in [11], in experiment [12] and in experiment [13] was > 20 µM (inactive) throughout.

Regarding `COC(=O)c1scc(S(=O)(=O)C(C)C)c1NN=C(C#N)C(=O)c1ccc(Cl)cc1`, the IC50 in [10] is > 20 µM (inactive); in experiment [11] it was 5.43 µM (active); in [12], 5.88 µM (active); in experiment [13] it was 10.9 µM (active).

For `CC[n+]1c(C)n(CC(O)COCC2CC=CCC2)c2ccccc21` (stereo unspecified), the half-inhibitory concentration (IC50) in experiment [8] was 2.12 µM (active); in experiment [9], 3.86 µM (active); in experiment [1], 92.2 µM (active); in experiment [2] it was 5.47 µM (active).

Take `COC(=O)c1ccc(NC(=O)CSc2nnc(C(C)NC(=O)c3ccccc3Cl)n2C)cc1` (stereo unspecified): the 50% effective concentration (EC50) in [14] is on record as 12.7 µM (not active); in experiment [15] it was 26.4 µM (not active); in [16], 19.8 µM (not active).
